The record followed here is ChEMBL document CHEMBL1201862, “PubChem BioAssay data set” (2004).

For orientation: IC50 means the point on the concentration scale where inhibition reaches its midpoint. In general, AC50 refers to the concentration giving half of the maximal activity seen. As usually defined, the EC50 is the concentration that produces a half-maximal response.

Test [1] can be described thus: THP-1 cell cytotoxicity, dose response, cytotoxicity control for non-replicating M. tuberculosis project (AID 489025). In kind it is functional.
The nature of test [2]: ADAM10 inhibitors, peptide cleavage, dose response, biochemical, QFRET (AID 743254).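 Note: ADAM10 enzyme with the DM2 quenched FRET peptide as substrate; EDANS fluorescence gain as the protease cuts the substrate; inhibitor potency against ADAM10 proteolytic activity.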
Test [3] is described as follows: A549 cell cytotoxicity, dose response, cytotoxicity control, plate reader, cherry-pick, antagonist series (AID 743412). In kind it is functional, cell-based.
Test [4] in a line: Vero E6 cell cytotoxicity, dose response, cytotoxicity control for non-replicating M. tuberculosis project, secondary assay (AID 492998). The class given is functional, VeroE6. The following applies: Vero C1008.
Test [5] is described as follows: microbe, parasite or virus in culture. The class given is functional. The following applies: Mycobacterium tuberculosis.
A short description of test [6]: HEK293 cell cytotoxicity, dose response, cytotoxicity control, plate reader, cherry-picked samples (AID 743446). In kind it is functional, cell-based.
A short description of test [7]: non-specific cell cytotoxicity, dose response, cytotoxicity control for PAX8 inhibitor project, plate reader, dry powder samples (AID 743021). In kind it is functional, cell-based.
Test [8] can be described thus: Luminescence Cell-Based Dose Retest to Confirm Inhibitors of Cancer Stem Cells. [Related pubchem assays (depositor defined):AID2717, AID2721]. The class given is functional. Conditions: Homo sapiens.
Test [9] deals with Disintegrin and metalloproteinase domain-containing protein 17 (Homo sapiens, UniProt P78536). Put plainly: ADAM17 protease inhibitors, dose response, counter-screen for ADAM10 exosite inhibitor project, biochemical, quenched FRET substrate (AID 743253). On the technique in general: A counterscreen serves to expose hits that act by an unwanted route or on another target.
Disintegrin and metalloproteinase domain-containing protein 17, sequence (P78536 whole entry, the tested form may be a part): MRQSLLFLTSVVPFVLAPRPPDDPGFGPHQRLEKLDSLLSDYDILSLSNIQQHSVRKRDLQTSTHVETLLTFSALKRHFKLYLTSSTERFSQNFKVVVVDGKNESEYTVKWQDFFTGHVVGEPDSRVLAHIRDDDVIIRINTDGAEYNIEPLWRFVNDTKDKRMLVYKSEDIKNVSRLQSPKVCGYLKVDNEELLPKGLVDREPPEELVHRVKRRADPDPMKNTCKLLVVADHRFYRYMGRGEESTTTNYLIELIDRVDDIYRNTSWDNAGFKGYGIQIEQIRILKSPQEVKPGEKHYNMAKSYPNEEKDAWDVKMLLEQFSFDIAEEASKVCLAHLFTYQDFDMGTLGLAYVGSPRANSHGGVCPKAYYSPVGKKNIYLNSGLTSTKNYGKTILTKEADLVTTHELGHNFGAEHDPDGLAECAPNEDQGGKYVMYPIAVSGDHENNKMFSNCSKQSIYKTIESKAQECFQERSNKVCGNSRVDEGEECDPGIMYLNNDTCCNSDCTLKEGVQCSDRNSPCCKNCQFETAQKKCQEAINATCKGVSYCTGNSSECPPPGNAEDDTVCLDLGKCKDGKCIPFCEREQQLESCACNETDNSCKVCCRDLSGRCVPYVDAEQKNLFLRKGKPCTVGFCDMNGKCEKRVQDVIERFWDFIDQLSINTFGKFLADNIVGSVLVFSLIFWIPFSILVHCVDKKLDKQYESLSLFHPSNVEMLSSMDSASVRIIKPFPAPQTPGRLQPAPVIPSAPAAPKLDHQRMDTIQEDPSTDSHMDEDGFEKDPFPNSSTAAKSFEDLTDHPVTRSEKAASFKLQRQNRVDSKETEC
In test [10] the target is Paired box protein Pax-8 (Homo sapiens, UniProt Q06710). Put plainly: inhibitors of PAX8-driven TPO luciferase reporter, dose response, RMG-I cells, cherry-pick (AID 687027).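 Note: luciferase reporter driven by Pax8 target thyroperoxidase promoter measured by SteadyGlo luminescence.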 In kind it is functional, cell-based.
Paired box protein Pax-8, sequence (Q06710 whole entry): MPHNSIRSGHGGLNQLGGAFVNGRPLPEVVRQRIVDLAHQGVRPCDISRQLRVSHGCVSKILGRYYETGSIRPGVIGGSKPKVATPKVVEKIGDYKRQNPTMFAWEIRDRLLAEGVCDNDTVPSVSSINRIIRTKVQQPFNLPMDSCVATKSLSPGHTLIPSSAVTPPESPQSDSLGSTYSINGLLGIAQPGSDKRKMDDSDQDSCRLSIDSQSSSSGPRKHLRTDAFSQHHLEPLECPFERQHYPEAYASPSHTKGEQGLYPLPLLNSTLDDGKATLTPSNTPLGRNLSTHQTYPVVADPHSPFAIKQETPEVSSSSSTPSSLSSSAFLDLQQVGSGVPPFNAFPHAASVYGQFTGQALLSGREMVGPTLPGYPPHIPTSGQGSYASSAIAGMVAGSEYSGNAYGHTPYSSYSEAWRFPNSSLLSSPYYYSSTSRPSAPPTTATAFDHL
Test [11] has as its target T1, Microphthalmia-associated transcription factor (Homo sapiens, UniProt O75030).
T1 sequence (O75030 whole entry): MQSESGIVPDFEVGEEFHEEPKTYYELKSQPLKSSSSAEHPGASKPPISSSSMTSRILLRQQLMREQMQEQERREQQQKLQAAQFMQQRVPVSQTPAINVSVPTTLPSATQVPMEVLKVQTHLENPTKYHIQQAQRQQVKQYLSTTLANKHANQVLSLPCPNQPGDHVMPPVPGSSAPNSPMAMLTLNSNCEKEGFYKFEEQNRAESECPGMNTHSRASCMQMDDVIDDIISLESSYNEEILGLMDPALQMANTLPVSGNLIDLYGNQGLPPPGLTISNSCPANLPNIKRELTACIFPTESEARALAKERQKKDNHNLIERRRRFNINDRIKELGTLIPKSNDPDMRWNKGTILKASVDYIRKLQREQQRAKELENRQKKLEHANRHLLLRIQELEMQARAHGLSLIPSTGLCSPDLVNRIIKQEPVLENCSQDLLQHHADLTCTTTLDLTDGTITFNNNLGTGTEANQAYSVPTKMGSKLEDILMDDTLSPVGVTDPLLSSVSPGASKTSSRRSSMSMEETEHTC
Kind of test: TRPM1 promoter luciferase signal decrease, dose response, MITF inhibitor project, cell-based, SK-MEL-5, cherry-picked, set 3 (AID 493073).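 Note: SK-MEL-5 melanoma cells with luciferase driven by the MITF target TRPM1 promoter.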 The class given is functional.

A short description of test [12]: HepG2 cell cytotoxicity, dose response, cytotoxicity control for non-replicating M. tuberculosis project (AID 489018). In kind it is functional. Conditions: Mycobacterium tuberculosis.
For test [13], the target named is Neurotensin receptor type 1 (Homo sapiens, UniProt P30989). In kind it is functional.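 Note: Image-based confirmatory dose-response assay measuring agonist activity at NTR1; NTR1-expressing U2OS osteosarcoma cells imaged for beta-arrestin GFP spot formation; agonist potency where compounds increase beta-arrestin recruitment.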
Neurotensin receptor type 1, sequence (P30989 whole entry): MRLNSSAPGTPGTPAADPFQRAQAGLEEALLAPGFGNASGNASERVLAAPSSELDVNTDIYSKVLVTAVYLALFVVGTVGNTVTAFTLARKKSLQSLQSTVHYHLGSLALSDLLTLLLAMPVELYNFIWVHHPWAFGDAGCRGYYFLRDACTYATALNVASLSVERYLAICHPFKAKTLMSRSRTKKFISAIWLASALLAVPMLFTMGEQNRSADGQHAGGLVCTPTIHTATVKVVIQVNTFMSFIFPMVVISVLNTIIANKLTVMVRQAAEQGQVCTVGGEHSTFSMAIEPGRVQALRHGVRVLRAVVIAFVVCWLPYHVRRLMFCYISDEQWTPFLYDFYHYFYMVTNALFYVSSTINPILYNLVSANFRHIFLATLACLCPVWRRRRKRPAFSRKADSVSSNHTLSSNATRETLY
Test [14] is described as follows: MC4R antagonists, dose response, counter-screen for LGR2 antagonist project, cell-based, plate reader, cherry pick (AID 743444).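 Note: transfected HEK 293 cells stimulated with alpha-MSH peptide; potency of inhibitors of the alpha-MSH evoked signal.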 The class given is functional.
The nature of test [15]: LGR2 antagonists, dose response, cell-based, HEK293, CRE-luciferase reporter, cherry pick, set 2 (AID 743343).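 Note: transfected cells were stimulated with diluted bursicon conditioned medium after compound addition.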 The class given is functional.
A short description of test [16]: cells. The class given is functional.
Test [17] concerns A-375. Put plainly: A375 melanoma cell viability reduction, dose response, counter-screen for MITF modulator project, cherry-pick samples, set 2 (AID 540335). The following applies: Homo sapiens. In kind it is functional, cell-based.
The target of test [18] is T2, Calpain-2 catalytic subunit (Sus scrofa, UniProt P43367).
T2 sequence (P43367 whole entry): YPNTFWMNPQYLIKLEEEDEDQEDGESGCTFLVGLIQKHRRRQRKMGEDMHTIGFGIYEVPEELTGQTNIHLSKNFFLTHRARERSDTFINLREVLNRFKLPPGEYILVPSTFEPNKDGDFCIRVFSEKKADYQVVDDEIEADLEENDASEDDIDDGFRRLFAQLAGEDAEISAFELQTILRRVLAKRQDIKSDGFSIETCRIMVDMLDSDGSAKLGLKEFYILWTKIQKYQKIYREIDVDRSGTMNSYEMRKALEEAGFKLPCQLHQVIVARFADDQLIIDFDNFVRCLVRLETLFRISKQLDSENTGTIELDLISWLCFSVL
Put plainly: pig calpain II inhibitor potency, dose response, biochemical, fluorogenic peptide substrate (AID 1420). The class given is functional.

Test [19] can be described thus: HepG2 cell cytotoxicity, dose response, cytotoxicity control, plate reader, cherry-pick, antagonist series (AID 743416). In kind it is functional, cell-based.
The target in test [20] is T3, Short transient receptor potential channel 4 (Mus musculus, UniProt Q9QUQ5).
T3 sequence (Q9QUQ5 whole entry): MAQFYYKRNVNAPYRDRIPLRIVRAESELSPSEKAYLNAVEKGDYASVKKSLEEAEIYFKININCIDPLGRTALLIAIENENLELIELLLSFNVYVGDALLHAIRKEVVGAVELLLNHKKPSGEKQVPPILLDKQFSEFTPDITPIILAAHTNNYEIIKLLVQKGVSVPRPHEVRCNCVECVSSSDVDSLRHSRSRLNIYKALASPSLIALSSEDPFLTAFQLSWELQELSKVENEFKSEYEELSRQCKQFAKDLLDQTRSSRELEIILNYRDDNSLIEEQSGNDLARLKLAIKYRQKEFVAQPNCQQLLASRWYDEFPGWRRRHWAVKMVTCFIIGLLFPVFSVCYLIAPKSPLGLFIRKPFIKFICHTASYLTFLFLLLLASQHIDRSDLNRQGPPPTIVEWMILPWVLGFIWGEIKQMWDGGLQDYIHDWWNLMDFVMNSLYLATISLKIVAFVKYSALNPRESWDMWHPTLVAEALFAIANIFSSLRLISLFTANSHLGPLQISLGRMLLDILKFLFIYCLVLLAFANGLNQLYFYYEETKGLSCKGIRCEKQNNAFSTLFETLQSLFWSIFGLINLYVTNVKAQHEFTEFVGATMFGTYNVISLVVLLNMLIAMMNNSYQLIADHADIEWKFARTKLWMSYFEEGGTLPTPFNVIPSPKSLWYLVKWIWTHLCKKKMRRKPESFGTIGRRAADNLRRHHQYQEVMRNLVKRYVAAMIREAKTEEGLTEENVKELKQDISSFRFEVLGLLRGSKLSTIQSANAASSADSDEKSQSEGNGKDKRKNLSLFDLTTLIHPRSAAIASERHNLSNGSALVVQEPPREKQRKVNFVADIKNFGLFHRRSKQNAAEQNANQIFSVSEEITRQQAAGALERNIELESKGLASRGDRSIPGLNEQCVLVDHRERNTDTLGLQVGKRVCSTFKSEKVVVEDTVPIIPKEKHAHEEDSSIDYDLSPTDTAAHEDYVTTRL
Put plainly: mouse TRPC4 channel inhibitors, dose response, cell-based, HEK293 TRPC4/mu-opioid, Fluo-4 calcium (AID 434942).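 Note: potency of inhibitors blocking the TRPC4 calcium response.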 The class given is functional.

Test [21] addresses T4, Voltage-dependent T-type calcium channel subunit alpha-1H (Homo sapiens, UniProt O95180). Kind of test: Inhibitors of T-Type Calcium Channels. [Related pubchem assays (depositor defined):AID449739, AID463087, AID489005, AID493041, AID504579, AID504584, AID504619, AID504628]. In kind it is functional.
The target of test [22] is Prothrombin (Homo sapiens, UniProt P00734). Kind of test: Thrombin 1536 HTS Dose Response Confirmation. [Related pubchem assays: 1046 (Thrombin 1536 HTS; hits were confirmed in this assay)]. In kind it is functional.
In test [23] the target is T5, Coagulation factor XII (Homo sapiens, UniProt P00748).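 Note: activated factor XIIa alpha cleaving a fluorogenic AMC peptide substrate; inhibitor potency from loss of enzyme activity.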
T5 sequence (P00748 whole entry): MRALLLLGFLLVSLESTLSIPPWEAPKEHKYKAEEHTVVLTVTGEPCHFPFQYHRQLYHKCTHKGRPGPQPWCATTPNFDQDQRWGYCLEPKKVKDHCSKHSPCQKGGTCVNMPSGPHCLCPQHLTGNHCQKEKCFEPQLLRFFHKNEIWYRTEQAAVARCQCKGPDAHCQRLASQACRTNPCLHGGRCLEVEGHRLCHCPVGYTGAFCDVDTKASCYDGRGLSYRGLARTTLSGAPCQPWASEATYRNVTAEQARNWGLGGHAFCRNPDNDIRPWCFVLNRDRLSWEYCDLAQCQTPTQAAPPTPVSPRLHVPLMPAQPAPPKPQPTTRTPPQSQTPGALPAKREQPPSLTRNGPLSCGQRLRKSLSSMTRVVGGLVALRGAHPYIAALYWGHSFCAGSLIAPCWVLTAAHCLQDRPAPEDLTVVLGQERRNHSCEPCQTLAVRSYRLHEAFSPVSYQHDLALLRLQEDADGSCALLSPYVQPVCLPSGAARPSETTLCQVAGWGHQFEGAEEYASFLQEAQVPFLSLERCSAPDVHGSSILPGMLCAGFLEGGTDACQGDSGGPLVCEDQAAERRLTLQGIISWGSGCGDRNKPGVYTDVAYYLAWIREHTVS
The class given is functional.

In test [24] the target is T6, Protein skinhead-1 (Caenorhabditis elegans, UniProt P34707).
T6 sequence (P34707 whole entry): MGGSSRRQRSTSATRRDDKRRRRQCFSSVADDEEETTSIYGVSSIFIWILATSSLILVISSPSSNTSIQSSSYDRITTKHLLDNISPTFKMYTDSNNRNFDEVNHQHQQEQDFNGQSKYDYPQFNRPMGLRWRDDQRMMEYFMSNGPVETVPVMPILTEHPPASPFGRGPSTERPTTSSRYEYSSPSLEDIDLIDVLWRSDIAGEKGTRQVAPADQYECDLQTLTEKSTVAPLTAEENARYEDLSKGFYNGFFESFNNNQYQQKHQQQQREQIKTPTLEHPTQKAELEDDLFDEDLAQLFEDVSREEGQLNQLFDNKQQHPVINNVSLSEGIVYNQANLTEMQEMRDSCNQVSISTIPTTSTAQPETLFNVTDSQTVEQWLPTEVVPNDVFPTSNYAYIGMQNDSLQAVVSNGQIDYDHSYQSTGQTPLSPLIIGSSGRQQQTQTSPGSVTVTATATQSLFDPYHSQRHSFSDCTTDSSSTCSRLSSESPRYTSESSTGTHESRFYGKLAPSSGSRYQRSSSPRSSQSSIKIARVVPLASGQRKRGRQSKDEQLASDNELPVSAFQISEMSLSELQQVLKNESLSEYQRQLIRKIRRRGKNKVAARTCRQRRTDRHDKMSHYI
The class given is functional.

In test [25] the target is T4, Voltage-dependent T-type calcium channel subunit alpha-1H. The class given is functional.
In test [26] the target is Caspase-7 (Homo sapiens, UniProt P55210). Kind of test: procaspase-7 activators, dose response, dual procaspase-3/-7 activator project, biochemical, absorbance, human (AID 504330).
Test [27] has as its target T7, Caspase-3 (Homo sapiens, UniProt P42574).
T7 sequence (P42574 whole entry): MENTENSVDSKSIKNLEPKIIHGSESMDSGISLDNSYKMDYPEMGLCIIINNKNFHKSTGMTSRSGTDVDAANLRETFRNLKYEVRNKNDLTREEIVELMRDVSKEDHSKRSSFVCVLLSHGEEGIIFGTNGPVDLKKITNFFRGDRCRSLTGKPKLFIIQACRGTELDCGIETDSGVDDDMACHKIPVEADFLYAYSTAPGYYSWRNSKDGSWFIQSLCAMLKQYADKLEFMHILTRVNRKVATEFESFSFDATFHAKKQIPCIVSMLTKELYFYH
Put plainly: procaspase-3 activation potency of dual hits, dose response, counter-screen for dual procaspase-3/7 activator project, biochemical, absorbance, PC-3 D3A mutant (AID 504328).

Calls of active or inactive are those of the source.

T4 sequence (O95180 whole entry): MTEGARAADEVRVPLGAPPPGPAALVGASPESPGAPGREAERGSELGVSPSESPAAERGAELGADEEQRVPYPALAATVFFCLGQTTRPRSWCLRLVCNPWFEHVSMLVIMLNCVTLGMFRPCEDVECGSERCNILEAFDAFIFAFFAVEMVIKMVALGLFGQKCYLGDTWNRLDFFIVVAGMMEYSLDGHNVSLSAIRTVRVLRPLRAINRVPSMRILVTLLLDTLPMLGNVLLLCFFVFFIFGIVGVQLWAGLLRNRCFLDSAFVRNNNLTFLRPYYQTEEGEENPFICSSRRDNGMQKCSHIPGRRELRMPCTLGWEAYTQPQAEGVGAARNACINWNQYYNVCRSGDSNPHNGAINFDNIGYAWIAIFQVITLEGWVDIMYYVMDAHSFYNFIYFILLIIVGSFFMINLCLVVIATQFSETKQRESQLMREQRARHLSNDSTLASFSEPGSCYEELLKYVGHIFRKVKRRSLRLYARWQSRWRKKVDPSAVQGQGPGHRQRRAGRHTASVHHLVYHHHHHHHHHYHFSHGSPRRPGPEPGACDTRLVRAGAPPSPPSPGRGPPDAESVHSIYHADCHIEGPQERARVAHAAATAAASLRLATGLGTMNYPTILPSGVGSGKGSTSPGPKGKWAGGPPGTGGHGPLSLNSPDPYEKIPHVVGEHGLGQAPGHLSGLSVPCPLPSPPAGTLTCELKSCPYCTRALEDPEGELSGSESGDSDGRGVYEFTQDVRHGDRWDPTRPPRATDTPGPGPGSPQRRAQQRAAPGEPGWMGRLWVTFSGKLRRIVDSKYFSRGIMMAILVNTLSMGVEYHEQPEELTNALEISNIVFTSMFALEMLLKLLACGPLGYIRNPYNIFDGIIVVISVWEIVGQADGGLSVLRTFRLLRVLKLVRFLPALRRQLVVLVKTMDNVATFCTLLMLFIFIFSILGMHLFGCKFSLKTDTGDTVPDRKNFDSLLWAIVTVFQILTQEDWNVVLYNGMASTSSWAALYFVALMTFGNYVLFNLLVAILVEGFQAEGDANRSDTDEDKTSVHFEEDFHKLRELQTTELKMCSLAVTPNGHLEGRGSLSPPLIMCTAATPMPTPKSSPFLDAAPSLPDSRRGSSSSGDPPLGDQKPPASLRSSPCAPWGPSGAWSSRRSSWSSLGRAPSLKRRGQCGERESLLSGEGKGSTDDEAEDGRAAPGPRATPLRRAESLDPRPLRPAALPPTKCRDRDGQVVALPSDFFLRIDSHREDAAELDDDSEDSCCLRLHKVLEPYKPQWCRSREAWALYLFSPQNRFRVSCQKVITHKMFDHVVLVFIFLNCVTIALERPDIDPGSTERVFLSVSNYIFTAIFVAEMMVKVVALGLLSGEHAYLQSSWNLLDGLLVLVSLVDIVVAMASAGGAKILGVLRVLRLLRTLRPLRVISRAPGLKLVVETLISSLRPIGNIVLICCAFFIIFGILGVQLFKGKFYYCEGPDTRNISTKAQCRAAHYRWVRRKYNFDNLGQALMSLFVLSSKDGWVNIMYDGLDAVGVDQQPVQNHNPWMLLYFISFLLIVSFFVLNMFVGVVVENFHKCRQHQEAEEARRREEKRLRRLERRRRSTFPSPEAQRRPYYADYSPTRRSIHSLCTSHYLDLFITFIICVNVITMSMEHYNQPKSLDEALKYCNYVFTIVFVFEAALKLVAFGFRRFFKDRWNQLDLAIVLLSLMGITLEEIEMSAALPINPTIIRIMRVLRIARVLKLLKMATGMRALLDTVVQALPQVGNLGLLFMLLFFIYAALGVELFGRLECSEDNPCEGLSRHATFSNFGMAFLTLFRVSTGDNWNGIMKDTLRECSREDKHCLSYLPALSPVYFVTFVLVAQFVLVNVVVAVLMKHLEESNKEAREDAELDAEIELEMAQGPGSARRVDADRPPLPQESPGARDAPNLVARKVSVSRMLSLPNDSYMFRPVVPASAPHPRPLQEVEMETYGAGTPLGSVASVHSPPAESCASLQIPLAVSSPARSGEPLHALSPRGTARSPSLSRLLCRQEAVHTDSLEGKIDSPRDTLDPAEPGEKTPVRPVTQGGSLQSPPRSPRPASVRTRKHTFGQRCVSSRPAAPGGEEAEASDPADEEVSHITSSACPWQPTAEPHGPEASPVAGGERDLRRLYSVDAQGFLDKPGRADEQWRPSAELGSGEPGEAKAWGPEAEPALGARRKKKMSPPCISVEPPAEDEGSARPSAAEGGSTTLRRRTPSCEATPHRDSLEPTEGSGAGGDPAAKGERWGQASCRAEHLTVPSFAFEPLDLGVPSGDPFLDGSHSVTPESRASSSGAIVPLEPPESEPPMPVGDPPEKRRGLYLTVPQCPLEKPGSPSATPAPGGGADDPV

As for `OC(CNCC(c1ccc(Cl)cc1Cl)c1c[nH]c2ccccc12)c1ccccc1` (configuration not stated), the CC50 was 6.38 µM (active) in [1], 6.27 µM (active) in test [4], 6.04 µM (active) in [5] and 7.75 µM (active) in test [12]. Further, the IC50 in [2] was 13.4 µM (inactive); in test [9] it was > 69.5 µM (inactive); in [16], 12.3 µM (active); in test [18], 11.4 µM (not active). Also, the AC50 in [3] is 8.71 µM (active); in test [6] it was 14.2 µM (active); in test [7], 38.2 µM (active); in test [8], 2.12 µM (active); in test [10], 11.2 µM (active); in test [11], 14.7 µM (active). Besides, the AC50 in test [14] is 21.1 µM (active); in test [15], 19.2 µM (active); in test [17], 14.8 µM (active); in [19], 8.61 µM (active). The EC50 in test [13] is 15.2 µM (active).
For `COc1ccc(C(=O)Nc2nc(-c3cccs3)cs2)cc1`, the EC50 in test [20] was 5.31 µM (active); in test [21], 1.1 µM (active); in test [25], 1.08 µM (active). Also, the values for the IC50 in test [22], in test [23] and in test [24] were 1.14 µM (active), > 50 µM (inactive) and 57.1 µM (inactive), respectively.
Turning to `CCOC(=O)/C(C#N)=C/Nc1cc(OC)ccc1OC`, the EC50 in test [26] and in test [27] was > 85.3 µM (inactive) in each case.
